Target: scRio2 (Saccharomyces cerevisiae, UniProt P40160)
Sequence (P40160 whole entry): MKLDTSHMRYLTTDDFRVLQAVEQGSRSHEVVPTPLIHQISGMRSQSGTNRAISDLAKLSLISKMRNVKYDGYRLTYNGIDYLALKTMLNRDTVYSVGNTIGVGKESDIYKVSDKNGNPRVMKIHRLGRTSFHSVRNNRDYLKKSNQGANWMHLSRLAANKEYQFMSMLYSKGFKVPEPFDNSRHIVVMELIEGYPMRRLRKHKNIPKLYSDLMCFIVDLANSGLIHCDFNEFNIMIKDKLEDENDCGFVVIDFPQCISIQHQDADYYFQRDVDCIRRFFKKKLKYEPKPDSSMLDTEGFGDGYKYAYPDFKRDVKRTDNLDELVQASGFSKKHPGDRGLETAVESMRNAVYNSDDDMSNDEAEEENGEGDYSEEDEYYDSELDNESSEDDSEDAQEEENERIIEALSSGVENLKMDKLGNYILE

Nc1ncnc2c1ncn2[C@@H]1O[C@H](COP(=O)(O)OP(=O)(O)OP(=O)(O)O)[C@@H](O)[C@H]1O [ATP]
autophosphorylation detected by mass spectrometry: phospho-serine residues after incubation of purified recombinant scRio2 with ATP

— article PMC3515705 (Nature structural & molecular biology, 2012)
